Reference: US20120015961A1, “ISOTHIOUREA DERIVATIVES OR ISOUREA DERIVATIVES HAVING BACE1 INHIBITORY ACTIVITY” (SHIONOGI & CO., LTD., priority 2009, published 2012)

How the values were obtained:
[1] = biological target: T1, CYP2C19 (Homo sapiens, UniProt P33261); assay: CYP inhibition test (CYP2C19); assay type: in vitro ADME; details: pooled human hepatic microsome, mephenyloin 4′-hydroxylation
T1 construct: Enzyme, pooled human hepatic microsome 0.2 mg protein/mL; from tissue; host or cells: pooled human hepatic microsomes
T1 sequence (P33261 whole entry): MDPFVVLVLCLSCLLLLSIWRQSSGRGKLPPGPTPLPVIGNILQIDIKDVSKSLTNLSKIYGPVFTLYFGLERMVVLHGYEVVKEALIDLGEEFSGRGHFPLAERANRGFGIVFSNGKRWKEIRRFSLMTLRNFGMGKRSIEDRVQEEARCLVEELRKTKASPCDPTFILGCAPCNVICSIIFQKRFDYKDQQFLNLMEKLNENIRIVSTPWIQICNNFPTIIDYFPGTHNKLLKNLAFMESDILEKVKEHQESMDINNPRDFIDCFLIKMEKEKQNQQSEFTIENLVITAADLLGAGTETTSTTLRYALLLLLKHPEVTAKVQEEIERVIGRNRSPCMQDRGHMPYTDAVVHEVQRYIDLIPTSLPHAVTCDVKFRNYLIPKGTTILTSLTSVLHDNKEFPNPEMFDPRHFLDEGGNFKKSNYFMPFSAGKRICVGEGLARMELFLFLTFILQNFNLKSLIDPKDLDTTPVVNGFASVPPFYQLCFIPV
Description: (§1) Using commercially available pooled human hepatic microsome, and employing, as markers, 7-ethoxyresorufin O-deethylation (CYP1A2), tolbutamide methyl-hydroxylation (CYP2C9), mephenyloin 4′-hydroxylation (CYP2C19), dextromethorphan O-demethylation (CYP2D6), and terfenedine hydroxylation as typical substrate metabolism reactions of human main five CYP enzyme forms (CYP1A2, 2C9, 2C19, 2D6, 3A4), an inhibitory degree of each metabolite production amount by a test compound was assessed.
(§2) The reaction conditions were as follows: […]
(§3) Each five kinds of substrates, human hepatic microsome, or a test drug in 50 mM Hepes buffer as a reaction solution was added to a 96-well plate at the composition as described above, NADPH, a cofactor, was added to initiate metabolism reactions as markers and, after the incubation at 37° C. for 15 minutes, a methanol/acetonitrile=1/1 (v/v) solution was added to stop the reaction. After the centrifugation at 3000 rpm for 15 minutes, resorufin (CYP1A2 metabolite) in the supernatant was quantified by a fluorescent multilabel counter and tributamide hydroxide (CYP2CP metabolite), mephenyloin 4′ hydroxide (CYP2C19 metabolite), […], and terfenadine alcohol (CYP3A4 metabolite) were quantified by LC/MS/MS. […]

[2] = biological target: T2, CYP2C9 (Homo sapiens, UniProt P11712); assay: CYP inhibition test (CYP2C9); assay type: in vitro ADME; details: pooled human hepatic microsome, tolbutamide methyl-hydroxylation
T2 construct: Enzyme, pooled human hepatic microsome 0.2 mg protein/mL; from tissue; host or cells: pooled human hepatic microsomes
T2 sequence (P11712 whole entry): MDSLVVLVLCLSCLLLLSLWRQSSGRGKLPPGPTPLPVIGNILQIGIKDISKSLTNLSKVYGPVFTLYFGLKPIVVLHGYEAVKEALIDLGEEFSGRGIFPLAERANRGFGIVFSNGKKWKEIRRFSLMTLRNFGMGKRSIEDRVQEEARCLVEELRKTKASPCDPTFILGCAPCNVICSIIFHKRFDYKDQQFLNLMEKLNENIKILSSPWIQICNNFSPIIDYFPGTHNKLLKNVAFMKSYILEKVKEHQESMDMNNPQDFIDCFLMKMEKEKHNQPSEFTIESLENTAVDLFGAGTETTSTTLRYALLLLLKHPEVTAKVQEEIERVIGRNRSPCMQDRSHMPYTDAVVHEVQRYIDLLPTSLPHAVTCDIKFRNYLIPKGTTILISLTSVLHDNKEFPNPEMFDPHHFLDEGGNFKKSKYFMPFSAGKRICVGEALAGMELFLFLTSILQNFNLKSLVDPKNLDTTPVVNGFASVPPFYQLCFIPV
Description: as §1, §2, §3

[3] = biological target: CYP3A4 (Homo sapiens, UniProt P08684); assay: CYP inhibition test (CYP3A4); assay type: in vitro ADME; parameters: Enzyme, pooled human hepatic microsome 0.2 mg protein/mL; from tissue; host or cells: pooled human hepatic microsomes; details: pooled human hepatic microsome, terfenedine hydroxylation
Chain of CYP3A4 (P08684 whole entry): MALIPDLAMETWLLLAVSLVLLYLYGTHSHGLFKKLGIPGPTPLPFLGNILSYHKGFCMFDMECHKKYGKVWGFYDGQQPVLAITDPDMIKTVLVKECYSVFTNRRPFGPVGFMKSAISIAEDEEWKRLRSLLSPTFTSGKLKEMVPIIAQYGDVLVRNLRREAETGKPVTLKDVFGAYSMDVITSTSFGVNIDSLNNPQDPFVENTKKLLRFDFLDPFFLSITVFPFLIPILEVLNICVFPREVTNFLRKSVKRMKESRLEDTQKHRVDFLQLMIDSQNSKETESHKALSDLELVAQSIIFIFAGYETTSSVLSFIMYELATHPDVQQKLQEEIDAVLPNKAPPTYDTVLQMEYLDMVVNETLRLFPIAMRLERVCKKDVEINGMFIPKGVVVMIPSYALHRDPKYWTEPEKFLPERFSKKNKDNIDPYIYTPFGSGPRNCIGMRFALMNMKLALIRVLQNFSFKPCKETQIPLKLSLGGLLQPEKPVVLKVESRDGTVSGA
Description: as §1, §2, §3

[4] = biological target: T3, CYP2D6 (Homo sapiens, UniProt P10635); assay: CYP inhibition test (CYP2D6); assay type: in vitro ADME; details: pooled human hepatic microsome, dextromethorphan O-demethylation
T3 construct: Enzyme, pooled human hepatic microsome 0.2 mg protein/mL; from tissue; host or cells: pooled human hepatic microsomes
T3 sequence (P10635 whole entry): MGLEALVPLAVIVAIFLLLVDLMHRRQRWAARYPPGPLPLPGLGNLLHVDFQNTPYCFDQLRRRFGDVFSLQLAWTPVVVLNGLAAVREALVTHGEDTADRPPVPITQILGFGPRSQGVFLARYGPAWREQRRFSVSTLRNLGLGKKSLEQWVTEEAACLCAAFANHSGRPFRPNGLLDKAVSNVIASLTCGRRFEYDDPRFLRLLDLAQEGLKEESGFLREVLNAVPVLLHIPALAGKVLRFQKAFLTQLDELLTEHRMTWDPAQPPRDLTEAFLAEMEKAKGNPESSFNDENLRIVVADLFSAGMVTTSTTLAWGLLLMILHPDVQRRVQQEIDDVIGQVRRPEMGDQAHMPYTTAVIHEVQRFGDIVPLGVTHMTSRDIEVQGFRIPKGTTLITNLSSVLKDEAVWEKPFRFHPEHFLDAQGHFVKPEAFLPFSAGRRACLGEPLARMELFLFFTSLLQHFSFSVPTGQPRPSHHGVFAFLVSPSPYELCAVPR
Description: as §1, §2, §3

[5] = test system: Neuroblastoma SH-SY5Y cells (SH/APPwt) with human wild-type β-APP excessively expressed; assay: Measurement of β-amyloid (Aβ) production inhibitory effect in cell; assay type: cell-based; details: Homo sapiens, SH-SY5Y, 24 h, amount needed to inhibit Aβ production by 50%, 24 hours incubation, Amyloid β1-40 HTRF
Description: Neuroblastoma SH-SY5Y cells (SH/APPwt) with human wild-type β-APP excessively expressed therein were prepared at 8×10^5 cells/mL, and 150 μl portions thereof were inoculated into each well of a 96-well culture plate (Falcon). The cells were cultured for 2 hours at 37° C. in a 5% gaseous carbon dioxide incubator. Then, a solution which had been preliminarily prepared by adding and suspending the test compound (DMSO (dimethyl sulfoxide) solution) so as to be 2 μl/50 μl medium was added to the cell sap. Namely, the final DMSO concentration was 1%, and the amount of the cell culture was 200 μl. After the incubation was performed for 24 hours from the addition of the test compound, 100 μl of the culture supernatant was collected from each fraction. The amount of the Aβ in each fraction was measured.
The […] was measured as follows. 10 μl of a homogeneous time resolved fluorescence (HTRF) measurement reagent (Amyloid β1-40 peptide; IBA Molecular Holding, S.A.) and 10 μl of the culture supernatant were put into a 384-well half area microplate (black microplate, Costar) and mixed with each other, and then left standing overnight at 4° C. while the light was shielded. Then, the fluorescence intensity (excitation wavelength: 337 nm, measurement wavelength: 620 nm and 665 nm) was measured with a Wallac 1420 multilabel counter (Perkin Elmer life sciences). The Aβ amount was determined from the count rate at each measurement wavelength (10000×Count 665/Count 620), and the amount needed to inhibit Aβ production by 50% (IC50) was calculated from at least six different dosages.

[6] = biological target: T4, CYP1A2 (Homo sapiens, UniProt P05177); assay: CYP inhibition test (CYP1A2); assay type: in vitro ADME; details: pooled human hepatic microsome, 7-ethoxyresorufin O-deethylation
T4 construct: Enzyme, pooled human hepatic microsome 0.2 mg protein/mL; from tissue; host or cells: pooled human hepatic microsomes
T4 sequence (P05177 1-516): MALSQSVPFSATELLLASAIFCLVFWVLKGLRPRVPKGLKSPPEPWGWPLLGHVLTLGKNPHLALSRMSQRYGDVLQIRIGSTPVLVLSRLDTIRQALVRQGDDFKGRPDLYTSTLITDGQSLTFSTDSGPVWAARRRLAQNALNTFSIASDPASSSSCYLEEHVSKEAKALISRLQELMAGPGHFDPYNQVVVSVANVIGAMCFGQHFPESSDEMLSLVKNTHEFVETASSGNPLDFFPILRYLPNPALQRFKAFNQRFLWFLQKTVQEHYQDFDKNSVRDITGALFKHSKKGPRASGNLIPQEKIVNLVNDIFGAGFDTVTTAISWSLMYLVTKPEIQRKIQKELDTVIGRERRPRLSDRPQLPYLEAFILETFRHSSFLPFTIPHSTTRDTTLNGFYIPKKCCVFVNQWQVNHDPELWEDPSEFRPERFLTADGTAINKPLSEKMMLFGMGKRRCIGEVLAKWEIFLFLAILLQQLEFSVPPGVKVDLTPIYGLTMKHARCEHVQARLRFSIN
Description: as §1, §2, §3

[7] = biological target: T5, Recombinant human BACE1 (Homo sapiens, UniProt P56817); assay: Assay of BACE1 inhibiting activity; assay type: biochemical; details: 50% inhibitory concentration against enzymatic activity, pH 5.0, 30° C., 3 hours
T5 construct: purchased R&D Systems
T5 sequence (P56817 46-501): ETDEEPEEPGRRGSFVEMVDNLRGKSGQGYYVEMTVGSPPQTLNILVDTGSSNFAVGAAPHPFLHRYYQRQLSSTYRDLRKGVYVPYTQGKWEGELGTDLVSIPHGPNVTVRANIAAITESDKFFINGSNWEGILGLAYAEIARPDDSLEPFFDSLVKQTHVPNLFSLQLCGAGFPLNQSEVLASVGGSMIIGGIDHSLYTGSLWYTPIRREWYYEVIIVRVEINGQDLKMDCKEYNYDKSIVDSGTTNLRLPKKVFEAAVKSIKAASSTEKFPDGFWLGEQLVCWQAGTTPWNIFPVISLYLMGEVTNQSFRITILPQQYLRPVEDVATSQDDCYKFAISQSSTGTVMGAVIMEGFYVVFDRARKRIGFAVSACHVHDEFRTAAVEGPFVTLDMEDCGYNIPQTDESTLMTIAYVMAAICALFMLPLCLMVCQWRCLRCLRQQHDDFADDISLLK
Description: 48.5 μL of substrate peptide solution (Biotin-XSEVNLDAEFRHDSGC-Eu: Xεε-amino-n-capronic acid, Eu=Europium cryptate) was added to each well of 96-hole half-area plate (a black plate: Costar Corporation), and after addition of 0.5 μl of the test compound (dissolved in […]) and 1 μl of Recombinant human BACE1 (R&D Systems), the reaction mixture was incubated at 30° C. for 3 hours. The substrate peptide was synthesized by reacting Cryptate TBPCOOH mono SMP (CIS bio international) with Biotin-XSEVNLDAEFRHDSGC (Peptide Institute, Inc.). The final concentrations of the substrate peptide and Recombinant human BACE1 were adjusted to 18 nM and 7.4 nM respectively, and the reaction was performed in sodium acetate buffer (50 mM sodium acetate, pH 5.0, 0.008% Triton X-100). After the completion of reaction, 50 μl of 8.0 μg/ml Streptavidin-XL665 (CIS bio international) dissolved in phosphate buffer (150 mM K2HPO4—KH2PO4, pH 7.0, 0.008% Triton X-100, 0.8 M KF) was added to each well and left stand at 30° C. for an hour. Then, fluorescence intensity was measured (excitation wavelength: 320 nm, measuring wavelength: 620 nm and 665 nm) using Wallac 1420 multilabel counter (Perkin Elmer life sciences). Enzymatic activity was determined from counting ratio of each wavelength (10,000×Count 665/Count 620) and 50% inhibitory concentration against the enzymatic activity was calculated.

[8] = BA test; assay type: in vivo; details: rat, plasma; SD rats, from AUCs of oral and intravenous administration
Description: Materials and methods for studies on oral absorption
(2) Breeding conditions: rats were allowed to freely take solid feed and sterilized tap water
(3) Dose and grouping: orally or intravenously administered at a predetermined dose; grouping was as follows (Dose depends on the compound)
Oral administration: 1 to 30 mg/kg (n=2 to 3)
Intravenous administration: 0.5 to 10 mg/kg (n=2 to 3)
(4) Preparation of dosing solution: for oral administration, in a solution or a suspension state; for intravenous administration, in a solubilized state
(5) Administration method: in oral administration, forcedly administer into ventriculus with oral probe; in intravenous administration, administer from caudal vein with a needle-equipped syringe
(6) Evaluation items: blood was collected over time, and the plasma concentration of drug was measured by LC/MS/MS
(7) Statistical analysis: regarding the transition of the plasma concentration, the area under the plasma concentration-time curve (AUC) was calculated by non-linear least squares program WinNonlin (Registered trademark), and the bioavailability (BA) was calculated from the AUCs of the oral administration group and intravenous administration group

[9] = Metabolic stability test; assay type: in vitro ADME; details: human liver microsomes 0.5 mg protein/mL, 1 mmol/L NADPH, 30 minutes at 37° C.
Description: The target compound was reacted with commercially available pooled human liver microsomes for a predetermined time period. The residual rate was calculated by comparing the reacted sample and unreacted sample, and thus the degree of metabolism in liver was evaluated.
In 0.2 mL of a buffer (50 mmol/L tris-HCl pH 7.4, 150 mmol/L potassium chloride, 10 mmol/L magnesium chloride) containing human liver microsomes 0.5 mg protein/mL, reaction was carried out in the presence of 1 mmol/L NADPH for 0 minute or 30 minutes at 37° C. (oxidative reaction). After the reaction, 50 μL of the reaction solution was added to and mixed with 100 μL of a solution of methanol/acetonitrile=1/1 (v/v), and the mixture was centrifuged for 15 minutes at 3000 rpm. The test compound in the centrifuged supernatant was quantified by LC/MS/MS, and the residual amount of the test compound after the reaction was calculated based on the compound amount at O-minute reaction set as 100%.

[10] = Solubility test; assay type: physicochemical; details: JP-I medium with 2% DMSO, pH 1.2, simulated gastric fluid, kinetic from dmso stock, turbidity after 4 hours
Description: A 2-fold dilution series (12 points) of a 10 mM solution of a test compound in DMSO was added to a medium (JP-I, JP-II) (2%), and solubility was assessed by 3 stages (High; >40 μM, Medium; 3-40 μM, Low; <3 μM) from a turbidity after 4 hours (crystallization information).

Row | IC50 [1] | IC50 [2] | IC50 [3] | IC50 [4] | IC50 [5] | IC50 [6] | IC50 [7] | bioavailability [8] | residual amount of the test compound after the reaction [9] | solubility at 4 h [10] | SMILES
1 | > 20 µM | > 20 µM | > 20 µM | > 20 µM | ≤ 1000 nM | > 20 µM | – | – | – | – | N#Cc1ccc(C(=O)Nc2cccc(C/N=C(\N)OCCCO)c2)nc1 [Compound 36]
2 | > 20 µM | > 20 µM | > 20 µM | > 20 µM | ≤ 1000 nM | > 20 µM | – | – | – | – | CO/C(N)=N\C1(c2cccc(NC(=O)c3cnc(C)cn3)c2)CC1 [Compound 41]
3 | – | – | – | – | ≤ 1000 nM | – | ≤ 1000 nM | 87.2% | – | – | CO/C(N)=N/C(c1ccccc1)c1cccc(NC(=O)c2ccc(C#N)cn2)c1 (centres unmarked) [Compound 48]
4 | – | – | – | – | ≤ 1000 nM | – | 188 nM | – | 100% | – | CO/C(N)=N/C(c1ccc(F)cc1)c1cccc(NC(=O)c2ccc(C#N)cn2)c1 (centres unmarked) [Compound 50]
5 | – | – | – | – | – | – | – | – | 98.9% | > 40 µM | CO/C(N)=N\c1cccc2ncc(NC(=O)c3ccc(C#N)cn3)cc12 [Compound 76]
6 | – | – | – | – | ≤ 1000 nM | – | ≤ 1000 nM | 75% | – | – | CO/C(N)=N\c1c(C)ccc2ccc(NC(=O)c3ccc(C#N)cn3)cc12 [Compound 77]
